Data: patent publication US7083814B2, “Antiviral substances from plant cuticular and epicuticular material” (Rutgers, The State University of New Jersey, priority 2000, dated 2006)

Columns and labels:
[1] = in vitro; conditions: African green monkey
[2] = tested on: herpes simplex virus type 1 strain HF; assay: Anti-HSV-1 Cytoprotection Assay (CPE reduction, MTS)
[3] = tested on: HIV-1RF; assay: Anti-HIV-1 Cytoprotection Assay (XTT); conditions: AZT control

| IC50 [1] [nM] | Compound | IC50 ([2]; Human alphaherpesvirus 1) [nM] | IC50 ([2]; Human alphaherpesvirus 1, Vero) [nM] | positive control result [3] |
| --- | --- | --- | --- | --- |
| > 100000 | Nc1nc2c(ncn2COCCO)c(=O)[nH]1 [Acyclovir] | 2400 | 2400 |  |
|  | Cc1cn([C@H]2C[C@H](N=[N+]=[N-])[C@@H](CO)O2)c(=O)[nH]c1=O [AZT] |  |  | within the expected parameters |
